Legend:
[1] = test system: pigs with ventricular fibrillation; assay: Potassium chloride cardioplegia during heart compressions in pigs with induced ventricular fibrillation; type: in vivo, pig; details: for development of stone heart: pigs, induced ventricular fibrillation, continuous infusion of potassium chloride, heart compressions for 1 hour
Description: Due to the access to the new external chest compression machine, “Lucas”, we have run extensive experiments in pigs. Until now we have run experiments in 5 years and used over 800 pigs. This new machine is much more efficient than manual compression of the chest. About 30% of the pigs with ventricular fibrillation survived 1 hour of external heart massage with the machine in normothermia. With manual compression no pigs survived 15 minutes. […] We noticed that this started to happen after 15 minutes.
The idea then came up that if cardioplegia is induced to the heart during heart arrest, it would be possible to eliminate this stone heart condition and make 100% of the hearts survive 60 minutes of heart compression. In clinical heart surgery we routinely use potassium to accomplish depolarisation and cardioplegia. We induced ventricular fibrillation in pigs and then induced cardioplegia in the form of potassium chloride into a central venous needle or even directly into the left ventricle, thereby inducing cardioplegia. By a continuous infusion of potassium chloride we kept the heart in a cardioplegic condition. […] After 60 minutes we cannulated the pig in the femoral artery and vein and established an extracorporeal membrane oxygenation (ECMO). […] When cardioplegia is induced in a heart at normotermia, 90% of the need for oxygen is eliminated, and the heart is arrested in a relaxed condition. Such a heart is very easy to perform external or internal heart massage on.

[2] = test system: pigs with electrically induced ventricular fibrillation; assay: Internal cardiopulmonary resuscitation by continuous left ventricle infusion of potassium chloride, followed by V-A ECMO; type: in vivo
Description: The purpose of the experiment was to evaluate the effects of continuous potassium chloride infusion during internal CPR with a catheter inserted into the left ventricle and to investigate the need for ECMO (extracorporeal membrane oxygenation) after high dose potassium chloride treatment during CPR, to obtain return of ROSC after prolonged CPR.
The haemodynamic parameters continuously was measured and stored as mean values every 5 second. Blood gases was analyzed with a Radiometer™ ABL 555® blood gas machine. Drug administration (Addex® potassium 4 mmol/ml, Fresenius Kabi, Uppsala, Sweden. 40 mg/ml papaverin, NM Pharma, Stockholm, Sweden.) during CPR was given according a specific protocol.
The following data parameters were measured and stored as mean values every 5 seconds throughout the experiment:
ECG, arterial pressure (SAP/MAP/DAP), central venous pressure (CVP), coronary perfusion pressure (CPP), carotid flow (CF), temperature, urine production (every 15 min), and blood gases.
The blood gas (Radiometer™, ABL 555®) data parameter were measured and stored intermittently or written down by hand throughout the experiment.
Electrically ventricular fibrillation was induced electrically in healthy test pigs (25-80 kg in body weight) at normothermic conditions (a body temperature of 38° C.). After 90 seconds of untreated ventricular fibrillation internal heart massage started manually and continued for 60 min. At the same time a booster injection of 10 ml potassium (Addex® potassium 4 mmol/ml, Fresenius Kabi, Uppsala, Sweden) and 3 ml papaverin sulfate (Papaverin 40 mg/ml, NM Pharma, Stockholm, Sweden) was given. Directly after a potassium infusion (Addex® potassium 4 mmol/ml, Fresenius Kabi, Uppsala, Sweden) was started (100 ml/h for 20 min, 50 ml/h for 20 min, 20 ml/h for 20 min). […] After 60 minutes of resuscitation V-A (venoarterial) ECMO was established and by ultrafiltration the serum potassium ion concentration was reduced towards normal levels.
After the 6-hour test period, the animal was put to death with a euthanasia solution.

SMILES: [Cl-].[K+] [potassium chloride]
- return of spontaneous heart beat after potassium chloride washed away by filtration ([1]; after 60 minutes of heart compressions, ECMO via femoral artery and vein): the heart started to beat spontaneously again
- recovery of hearts after heart massage ([1]; experimental animal with acute ventricular fibrillation, after one hour of heart massage): possible to recover all hearts
- development of stone heart [1]: without the development of stone heart
- development of stone heart ([1]; listed as potassium): eliminates the development of stone heart
- Event: heart beating ([2]; 25 kg Swedish domestic pig, Exp. Time 2:22:01, after stop K at 2:18:38, on bypass): spontaneously
- Event: urine production ([2]; 25 kg Swedish domestic pig, Exp. Time 4:29:33, after off bypass at 3:42:43): normal urine
- heart rhythm / ROSC ([2]; after 1 h of CPR in combination with potassium administration followed by ECMO, FIG. 1): ROSC came into effect

— patent publication US7270833B2, “Cardioplegic solution” (Jolife AB, priority 2000, dated 2007)
